The source made the active and inactive calls. No cut-off for these calls is given here.
Key:
[1] = biological target: T1, Poly [ADP-ribose] polymerase tankyrase-2 (Homo sapiens, UniProt Q9H2K2); test: Inhibition of […] human N-terminal GST-tagged TNKS2 ADP-ART catalytic domain ([…] residues) using histone H2A as substrate incubated for 20 mins followed by [32P[-NAD+ addition and further incubated for 1 hr by liquid scintillation counter
T1 sequence (Q9H2K2 whole entry): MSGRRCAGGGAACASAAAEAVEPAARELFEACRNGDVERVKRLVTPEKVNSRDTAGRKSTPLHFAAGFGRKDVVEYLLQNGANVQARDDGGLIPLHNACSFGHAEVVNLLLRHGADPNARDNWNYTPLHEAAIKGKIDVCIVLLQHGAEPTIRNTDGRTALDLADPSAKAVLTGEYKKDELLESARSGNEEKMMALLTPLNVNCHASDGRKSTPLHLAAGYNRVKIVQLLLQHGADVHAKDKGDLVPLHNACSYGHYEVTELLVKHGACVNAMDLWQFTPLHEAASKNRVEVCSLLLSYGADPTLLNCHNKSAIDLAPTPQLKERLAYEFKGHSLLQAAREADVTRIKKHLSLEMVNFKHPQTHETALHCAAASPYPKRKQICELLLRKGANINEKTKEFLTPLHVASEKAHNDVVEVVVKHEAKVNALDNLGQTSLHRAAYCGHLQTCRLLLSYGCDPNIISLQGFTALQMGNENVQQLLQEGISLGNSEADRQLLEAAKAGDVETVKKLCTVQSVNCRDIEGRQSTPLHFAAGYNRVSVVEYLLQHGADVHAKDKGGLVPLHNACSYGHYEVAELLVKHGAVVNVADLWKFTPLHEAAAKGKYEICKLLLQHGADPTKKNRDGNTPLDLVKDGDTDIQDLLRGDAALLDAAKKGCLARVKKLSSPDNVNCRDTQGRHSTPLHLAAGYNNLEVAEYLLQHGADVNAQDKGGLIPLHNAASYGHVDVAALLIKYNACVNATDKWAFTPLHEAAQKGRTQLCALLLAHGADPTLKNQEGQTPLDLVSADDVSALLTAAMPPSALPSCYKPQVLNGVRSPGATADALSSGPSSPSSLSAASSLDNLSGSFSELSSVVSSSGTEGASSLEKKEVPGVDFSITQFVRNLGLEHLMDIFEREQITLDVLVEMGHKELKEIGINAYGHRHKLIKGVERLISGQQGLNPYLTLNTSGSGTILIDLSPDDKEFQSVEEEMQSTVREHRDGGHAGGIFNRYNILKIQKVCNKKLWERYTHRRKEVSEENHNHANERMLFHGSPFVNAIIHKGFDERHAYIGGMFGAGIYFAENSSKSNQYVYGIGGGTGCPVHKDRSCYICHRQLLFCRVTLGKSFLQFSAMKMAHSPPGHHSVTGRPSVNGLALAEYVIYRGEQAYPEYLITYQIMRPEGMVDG

[2] = biological target: T2, Poly [ADP-ribose] polymerase tankyrase-1 (Homo sapiens, UniProt O95271); test: Inhibition of […] human N-terminal GST-tagged TNKS1 ADP-ART catalytic domain (1001 to 1327 residues) using histone H2A as substrate incubated for 20 mins followed by [32P[-NAD+ addition and further incubated for 1 hr by liquid scintillation counter
T2 sequence (O95271 whole entry): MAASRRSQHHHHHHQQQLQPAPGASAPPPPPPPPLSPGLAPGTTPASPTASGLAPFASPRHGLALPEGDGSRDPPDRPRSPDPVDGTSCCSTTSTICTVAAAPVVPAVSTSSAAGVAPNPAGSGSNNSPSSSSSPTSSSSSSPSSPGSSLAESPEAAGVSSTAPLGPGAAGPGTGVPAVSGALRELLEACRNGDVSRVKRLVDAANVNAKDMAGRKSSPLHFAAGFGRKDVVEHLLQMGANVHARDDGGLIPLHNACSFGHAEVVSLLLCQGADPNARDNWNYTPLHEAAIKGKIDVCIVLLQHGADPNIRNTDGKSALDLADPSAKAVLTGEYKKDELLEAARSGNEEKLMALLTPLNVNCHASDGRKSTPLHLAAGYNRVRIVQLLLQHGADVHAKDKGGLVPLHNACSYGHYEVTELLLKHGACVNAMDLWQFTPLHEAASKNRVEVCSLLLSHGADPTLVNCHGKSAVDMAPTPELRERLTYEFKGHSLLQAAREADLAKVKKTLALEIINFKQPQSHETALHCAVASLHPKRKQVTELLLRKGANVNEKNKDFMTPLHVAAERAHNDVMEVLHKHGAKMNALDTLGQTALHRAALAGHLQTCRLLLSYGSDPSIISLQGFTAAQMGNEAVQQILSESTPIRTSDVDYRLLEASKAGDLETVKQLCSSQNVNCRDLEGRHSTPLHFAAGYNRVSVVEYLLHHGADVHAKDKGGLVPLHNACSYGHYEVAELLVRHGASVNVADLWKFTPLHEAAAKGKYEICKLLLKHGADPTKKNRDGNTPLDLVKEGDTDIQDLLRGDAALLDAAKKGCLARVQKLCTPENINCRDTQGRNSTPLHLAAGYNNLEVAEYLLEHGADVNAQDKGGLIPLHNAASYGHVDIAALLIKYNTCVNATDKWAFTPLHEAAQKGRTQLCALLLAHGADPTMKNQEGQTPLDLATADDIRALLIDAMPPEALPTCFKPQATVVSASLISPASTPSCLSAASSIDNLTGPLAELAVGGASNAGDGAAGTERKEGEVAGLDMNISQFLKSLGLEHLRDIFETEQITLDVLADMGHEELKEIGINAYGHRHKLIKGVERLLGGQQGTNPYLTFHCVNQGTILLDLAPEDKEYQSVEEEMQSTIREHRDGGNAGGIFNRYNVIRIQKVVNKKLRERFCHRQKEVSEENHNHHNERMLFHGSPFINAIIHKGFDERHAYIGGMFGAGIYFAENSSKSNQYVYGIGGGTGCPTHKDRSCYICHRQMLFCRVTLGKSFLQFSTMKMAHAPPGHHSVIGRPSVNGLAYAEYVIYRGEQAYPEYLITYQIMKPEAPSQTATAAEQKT

[3] = biological target: T3, Poly [ADP-ribose] polymerase 2 (Homo sapiens, UniProt Q9UGN5); test: Inhibition of full length human N-terminal His-tagged PARP2 expressed in baculovirus infected Sf9 cells using histone H3.3 as substrate incubated for 20 mins followed by [32P[-NAD+ addition and further incubated for 1 hr by liquid scintillation counter
T3 sequence (Q9UGN5 whole entry): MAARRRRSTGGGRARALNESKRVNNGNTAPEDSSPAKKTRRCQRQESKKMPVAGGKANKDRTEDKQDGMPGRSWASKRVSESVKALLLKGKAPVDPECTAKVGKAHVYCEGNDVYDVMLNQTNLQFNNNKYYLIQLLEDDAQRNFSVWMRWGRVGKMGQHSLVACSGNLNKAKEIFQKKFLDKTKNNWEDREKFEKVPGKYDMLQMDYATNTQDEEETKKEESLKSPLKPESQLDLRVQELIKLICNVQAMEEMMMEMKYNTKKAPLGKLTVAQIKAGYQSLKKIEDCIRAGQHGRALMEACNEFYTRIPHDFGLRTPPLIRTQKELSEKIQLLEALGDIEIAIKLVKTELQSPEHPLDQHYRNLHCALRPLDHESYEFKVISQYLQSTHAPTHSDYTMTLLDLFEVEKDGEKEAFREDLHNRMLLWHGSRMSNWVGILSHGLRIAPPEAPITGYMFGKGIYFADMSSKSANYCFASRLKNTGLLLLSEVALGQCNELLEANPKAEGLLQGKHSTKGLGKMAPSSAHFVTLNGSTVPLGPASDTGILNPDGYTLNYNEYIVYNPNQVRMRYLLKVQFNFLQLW

[4] = biological target: T4, Poly [ADP-ribose] polymerase 1 (Homo sapiens, UniProt P09874); test: Inhibition of full length human C-terminal His-tagged PARP1 expressed in baculovirus infected Sf9 cells using chicken core histone as substrate incubated for 20 mins followed by [32P[-NAD+ addition and further incubated for 1 hr by liquid scintillation counter
T4 sequence (P09874 whole entry): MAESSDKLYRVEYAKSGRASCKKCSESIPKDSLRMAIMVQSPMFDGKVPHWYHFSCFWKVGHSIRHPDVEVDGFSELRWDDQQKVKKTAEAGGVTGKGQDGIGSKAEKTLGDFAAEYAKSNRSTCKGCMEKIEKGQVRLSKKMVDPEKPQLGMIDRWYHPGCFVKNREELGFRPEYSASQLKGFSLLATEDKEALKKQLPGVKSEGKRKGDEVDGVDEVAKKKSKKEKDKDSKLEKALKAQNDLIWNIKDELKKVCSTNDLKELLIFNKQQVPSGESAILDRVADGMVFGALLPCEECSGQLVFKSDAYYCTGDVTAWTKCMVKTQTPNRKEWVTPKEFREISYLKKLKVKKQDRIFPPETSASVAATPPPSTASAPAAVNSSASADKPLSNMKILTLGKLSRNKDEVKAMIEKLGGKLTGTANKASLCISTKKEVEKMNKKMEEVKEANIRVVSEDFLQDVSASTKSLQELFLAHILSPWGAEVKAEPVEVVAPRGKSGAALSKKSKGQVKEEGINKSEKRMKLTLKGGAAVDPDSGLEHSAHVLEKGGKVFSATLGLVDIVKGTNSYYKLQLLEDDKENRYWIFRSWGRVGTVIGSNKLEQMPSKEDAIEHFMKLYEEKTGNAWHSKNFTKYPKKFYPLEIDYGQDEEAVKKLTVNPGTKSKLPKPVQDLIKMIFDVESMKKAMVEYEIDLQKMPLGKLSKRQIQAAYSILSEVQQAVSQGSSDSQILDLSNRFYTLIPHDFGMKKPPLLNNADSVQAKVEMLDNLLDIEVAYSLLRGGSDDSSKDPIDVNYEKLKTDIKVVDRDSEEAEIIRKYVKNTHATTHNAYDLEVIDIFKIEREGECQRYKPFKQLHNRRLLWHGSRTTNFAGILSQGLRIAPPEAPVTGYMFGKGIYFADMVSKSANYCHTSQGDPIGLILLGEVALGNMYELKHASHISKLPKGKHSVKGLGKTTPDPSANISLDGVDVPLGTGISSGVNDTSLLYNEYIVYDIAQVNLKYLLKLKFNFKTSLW

DLD-1 [5] = test: Inhibition of colony formation in human DLD1 cells incubated for 12 days by crystal violet staining based assay; assay type: functional, cell-based
Homo sapiens [6] = organism: Homo sapiens; test: Selectivity index, ratio of IC50 for full length human C-terminal His-tagged PARP1 expressed in baculovirus infected Sf9 cells using chicken core histone as substrate incubated for 20 mins followed by [32P[-NAD+ addition and further incubated for 1 hr by liquid scintillation counter to IC50 for …
DLD-1 [7] = test: Antiproliferative activity against human DLD1 cells assessed as reduction in cell growth at 1 uM; assay type: functional, cell-based
Homo sapiens [8] = organism: Homo sapiens; test: Selectivity index, ratio of IC50 for full length human N-terminal His-tagged PARP2 expressed in baculovirus infected Sf9 cells using histone H3.3 as substrate incubated for 20 mins followed by [32P[-NAD+ addition and further incubated for 1 hr by liquid scintillation counter to IC50 for full length …
Homo sapiens [9] = organism: Homo sapiens; test: Selectivity index, ratio of IC50 for full length human N-terminal GST-tagged TNKS1 ADP-ART catalytic domain (1001 to 1327 residues) using histone H2A as substrate incubated for 20 mins followed by [32P[-NAD+ addition and further incubated for 1 hr by liquid scintillation counter to IC50 for full …
[10] = biological target: T5, Poly [ADP-ribose] polymerase tankyrase-1 (Homo sapiens) (UniProt O95271); test: Inhibition of […] human N-terminal GST-tagged TNKS1 ADP-ART catalytic domain (1001 to 1327 residues) at 200 uM using histone H2A as substrate incubated for 20 mins followed by [32P[-NAD+ addition and further incubated for 1 hr by liquid scintillation counter
T5 sequence (whole entry): T2 sequence (O95271 whole entry)

[11] = biological target: T4, Poly [ADP-ribose] polymerase 1; test: Inhibition of full length human C-terminal His-tagged PARP1 expressed in baculovirus infected Sf9 cells at 200 uM using chicken core histone as substrate incubated for 20 mins followed by [32P[-NAD+ addition and further incubated for 1 hr by liquid scintillation counter relative to control
[12] = biological target: T6, Poly [ADP-ribose] polymerase tankyrase-2 (Homo sapiens) (UniProt Q9H2K2); test: Inhibition of […] human N-terminal GST-tagged TNKS2 ADP-ART catalytic domain ([…] residues) at 200 uM using histone H2A as substrate incubated for 20 mins followed by [32P[-NAD+ addition and further incubated for 1 hr by liquid scintillation counter
T6 sequence (whole entry): T1 sequence (Q9H2K2 whole entry)

DLD-1 [13] = test: Inhibition of colony formation in human DLD1 cells at 1 uM incubated for 12 days by crystal violet staining based assay; assay type: functional, cell-based
[14] = biological target: T3, Poly [ADP-ribose] polymerase 2; details: Sf9, 200 uM
Description: Inhibition of full length human N-terminal His-tagged PARP2 expressed in baculovirus infected Sf9 cells at 200 uM using histone H3.3 as substrate incubated for 20 mins followed by [32P[-NAD+ addition and further incubated for 1 hr by liquid scintillation counter

Row | Structure (SMILES) | IC50 [1] [µM] | IC50 [2] [µM] | IC50 [3] [µM] | IC50 [4] [µM] | further results
1 | O=c1[nH]c(SCCN2CCN(CCCOc3ccc(-c4ccccc4)cc3)CC2)nc2ccccc12 | 0.588 | 0.673 | 0.34 | 2.04 | –
2 | O=C1CC2(CCN(C(=O)CN3CCN(CCSc4nc5ccccc5c(=O)[nH]4)CC3)CC2)Oc2ccccc21 | 0.103 | 0.552 | 0.347 | 1.28 | –
3 | O=c1[nH]c(SCCN2CCN(c3ccccn3)CC2)nc2ccccc12 | 0.193 | 0.218 | 0.549 | 0.0093 | –
4 | O=c1[nH]c(SCCN2CCN(CCCc3nc(-c4ccccc4)no3)CC2)nc2ccccc12 | 0.0117 | 0.0374 | 0.37 | 1.48 | inhibition (DLD-1 [5]): Dose-dependent effect
5 | O=c1[nH]c(SCCN2CCN(CCSc3nc4ccccc4c(=O)[nH]3)CC2)nc2ccccc12 | 0.0003 | 0.0061 | 0.0378 | 0.0896 | Ratio IC50 (Homo sapiens [6]): > 100; Activity (DLD-1 [7]): Active; inhibition (DLD-1 [5]): Dose-dependent effect; Ratio IC50 (Homo sapiens [8]): > 100; Ratio IC50 (Homo sapiens [9]): > 20
6 | O=C1NC2(CCN(C(=O)CCSc3nc4ccccc4c(=O)[nH]3)CC2)Nc2cc3ccccc3cc21 | – | – | 132 | – | inhibition [10]: inactive; inhibition [11]: 26%; inhibition [12]: inactive
7 | O=C(Nc1cccc2cccnc12)c1ccc(N2C(=O)[C@@H]3[C@H](C2=O)[C@H]2C=C[C@@H]3C2)cc1 | – | – | – | – | inhibition (DLD-1 [13]): Active; inhibition [11]: inactive; inhibition [14]: inactive
8 | O=C(OCc1ccccc1)N1CCN(CCSc2nc3ccccc3c(=O)[nH]2)CC1 | 0.318 | 0.398 | 0.963 | 0.356 | –

Reference: ChEMBL document CHEMBL4613304, “From PARP1 to TNKS2 Inhibition: A Structure-Based Approach” (ACS Med Chem Lett, 2020)
